Results as given in article PMC4503722, “Novel Phenotypic Outcomes Identified for a Public Collection of Approved Drugs from a Publicly Accessible Panel of Assays” (PLoS ONE, 2015).
Where two headings read alike, the source gives them in different places. *1 amine or outer side, *2 acyl side, *3 side chain or, on linkers, in order; H or OH if unused. Where a SMILES comes first, the peptide text is derived from it. Bridges are numbered along the chain shown (N, C = ends). Roman numbers before positions name the chains, in order. [ ]: non-standard residue; d: D form. Actinocin(9to1) = Cc1c2oc3c(C)ccc(C(=O)[*:1])c3nc-2c(C(=O)[*:2])c(N)c1=O; NMeV = CN[C@H](C(=O)O)C(C)C; Sar = CNCC(=O)O

Legend:
Experiment in all cases: cells
[1] = test system: DLD-1; assay type: cell-based
[2] = test system: NCI-H716 cells; assay type: cell-based, Human
[3] = test system: HCT116; assay type: cell-based
[4] = test system: endothelial tube formation in co-cultures of ECFCs and ADSCs treated with VEGF; assay type: cell-based, human
[5] = test system: nuclear β-catenin in C2C12 cells; assay type: cell-based
[6] = test system: INS-1E cells; assay type: cell-based, rat
[7] = test system: HeLa cells; assay type: cell-based; settings: read-out: CellCycle G2/M
[8] = test system: SW480; assay type: cell-based
[9] = test system: HCT116 cells treated with a GSK3β inhibitor; assay type: cell-based
[10] = Homo sapiens, DLD-1, basal; DLD-1; read-out: Basal_Viability ATP DLD-1
[11] = Homo sapiens, NCI-H716; read-out: GLP 1 Secretion
[12] = Homo sapiens, HCT-116, basal; HCT116; read-out: Basal_Viability ATP HCT116
[13] = Homo sapiens; read-out: Anti-Angiogenesis
[14] = Mus musculus, C2C12, S2 Table, module primary assay, 20 / 20.1 codes per legend, read-out: Wnt Pathway
[15] = Rattus norvegicus, INS-1E; read-out: Insulin Secretion
[16] = Homo sapiens, HeLa, S2 Table, HeLa, 20 = no response at highest concentration
[17] = Homo sapiens, SW480, basal; SW480; read-out: Basal_Viability ATP SW480
[18] = Homo sapiens, HCT-116, HCT116 pretreated with GSK3b inhibitor, read-out: GSK3b inh pretreated_Viability ATP HCT116
[19] = Homo sapiens, DLD-1, basal; read-out: Basal_Viability ATP DLD-1
[20] = Homo sapiens; IC50 / EC50; NCI-H716; read-out: GLP 1 Secretion
[21] = Homo sapiens, HCT-116, basal; read-out: Basal_Viability ATP HCT116
[22] = Homo sapiens, IC50 / EC50; endothelial tube area, ADSC/ECFC co-culture; read-out: Anti-Angiogenesis
[23] = Mus musculus, C2C12, IC50 / EC50, C2C12 beta-catenin translocation, read-out: Wnt Pathway
[24] = Rattus norvegicus; IC50 / EC50; INS-1E; read-out: Insulin Secretion
[25] = Homo sapiens, HeLa, IC50 / EC50, HeLa
[26] = Homo sapiens, SW480, basal; read-out: Basal_Viability ATP SW480
[27] = Homo sapiens, HCT-116, GSK3b inhibitor pretreated, read-out: GSK3b inh pretreated_Viability ATP HCT116

Structure (SMILES): CCOc1ccc2nc3cc(N)ccc3c(N)c2c1 [Acrinol]
- IC50 ([1]; read-out: Basal_Viability ATP DLD-1): > 20 µM
- EC50 ([2]; read-out: GLP 1 Secretion): > 10 µM
- IC50 ([3]; read-out: Basal_Viability ATP HCT116): 15.7 µM
- IC50 ([4]; read-out: Anti-Angiogenesis): 4.94 µM
- EC50 ([5]; read-out: Wnt Pathway): > 10 µM
- EC50 ([6]; read-out: Insulin Secretion): > 10 µM
- EC50 [7]: > 10 µM
- IC50 ([8]; read-out: Basal_Viability ATP SW480): 3.23 µM
- IC50 ([9]; read-out: GSK3b inh pretreated_Viability ATP HCT116): 5.92 µM

Structure (SMILES): O=C1c2c(O)cccc2Cc2cccc(O)c21 [Anthralin]
- IC50 [1, 10]: 0.0667 µM
- EC50 [2, 11]: > 10 µM
- IC50 [3, 12]: 2.2 µM
- IC50 [4, 13]: 0.604 µM
- EC50 [5, 14]: > 10 µM
- EC50 [6, 15]: > 10 µM
- EC50 [7, 16]: > 10 µM
- IC50 [8, 17]: 1.57 µM
- IC50 [9, 18]: 16.3 µM

Structure (SMILES): O=c1[nH]c(=O)n([C@H]2C[C@H](O)[C@@H](CO)O2)cc1Br [Broxuridine]
- IC50 [1, 19]: > 20 µM
- EC50 [2, 20]: > 10 µM
- IC50 [3, 21]: > 20 µM
- IC50 [4, 22]: 3.85 µM
- EC50 [5, 23]: > 10 µM
- EC50 [6, 24]: > 10 µM
- EC50 [7, 25]: > 10 µM
- IC50 [8, 26]: > 20 µM
- IC50 [9, 27]: > 20 µM

Structure (SMILES): C=CC(=O)Nc1cc2c(Nc3ccc(F)c(Cl)c3)ncnc2cc1OCCCN1CCOCC1 [Canertinib]
- IC50 ([1]; Homo sapiens, DLD-1, read-out: Basal_Viability ATP DLD-1): 0.841 µM
- EC50 ([2]; Homo sapiens, NCI-H716, read-out: GLP 1 Secretion): > 10 µM
- IC50 ([3]; Homo sapiens, HCT-116, read-out: Basal_Viability ATP HCT116): 3.71 µM
- IC50 ([4]; Homo sapiens, read-out: Anti-Angiogenesis): > 10 µM
- EC50 ([5]; Mus musculus, C2C12, read-out: Wnt Pathway): 1 µM
- EC50 ([6]; Rattus norvegicus, INS-1E, read-out: Insulin Secretion): > 10 µM
- EC50 ([7]; Homo sapiens, HeLa): > 10 µM
- IC50 ([8]; Homo sapiens, SW480, read-out: Basal_Viability ATP SW480): 1.21 µM
- IC50 ([9]; Homo sapiens, HCT-116, read-out: GSK3b inh pretreated_Viability ATP HCT116): 3.51 µM

Structure (SMILES): CCCCCCCCCCCCCCCC[N+](C)(C)Cc1ccccc1 [Cetalkonium chloride]
- IC50 [1, 19]: 3.92 µM
- EC50 [2, 20]: > 10 µM
- IC50 [3, 21]: 3.47 µM
- IC50 [4, 22]: 2.53 µM
- EC50 [5, 23]: > 10 µM
- EC50 [6, 24]: > 10 µM
- EC50 [7, 25]: > 10 µM
- IC50 [8, 26]: 5.17 µM
- IC50 [9, 27]: 6.25 µM

Structure (SMILES): Cc1c2oc3c(C)ccc(C(=O)N[C@@H]4C(=O)N[C@H](C(C)C)C(=O)N5CCC[C@H]5C(=O)N(C)CC(=O)N(C)[C@@H](C(C)C)C(=O)O[C@@H]4C)c3nc-2c(C(=O)N[C@@H]2C(=O)N[C@H](C(C)C)C(=O)N3CCC[C@H]3C(=O)N(C)CC(=O)N(C)[C@@H](C(C)C)C(=O)O[C@@H]2C)c(N)c1=O [Dactinomycin] (I: T[dV]P[Sar][NMeV] / II: T[dV]P[Sar][NMeV]; ester I:1-I:C, II:1-II:C; linker I:N-II:N via Actinocin(9to1))
- IC50 ([1]; Homo sapiens, DLD-1; read-out: Basal_Viability ATP DLD-1): 0.0667 µM
- EC50 [2, 20]: > 10 µM
- IC50 ([3]; Homo sapiens, HCT-116; read-out: Basal_Viability ATP HCT116): 12.6 µM
- IC50 [4, 22]: 0.001 µM
- EC50 ([5]; Mus musculus, IC50 / EC50, C2C12 beta-catenin translocation, read-out: Wnt Pathway): 0.0015 µM
- EC50 [6, 24]: > 10 µM
- IC50 ([8]; Homo sapiens, SW480; read-out: Basal_Viability ATP SW480): 0.0667 µM
- IC50 [9, 27]: > 20 µM

Structure (SMILES): CC(=O)N(O)CCCCCNC(=O)CCC(=O)N(O)CCCCCNC(=O)CCC(=O)N(O)CCCCCN [Deferoxamine]
- IC50 [1, 10]: > 20 µM
- EC50 [2, 11]: > 10 µM
- IC50 [3, 12]: 8.55 µM
- IC50 [4, 13]: 4.53 µM
- EC50 [5, 14]: > 10 µM
- EC50 [6, 15]: > 10 µM
- EC50 [7, 16]: > 10 µM
- IC50 [8, 17]: > 20 µM
- IC50 [9, 18]: > 20 µM

Structure (SMILES): O=C(O)c1ccccc1-c1c2cc(I)c(=O)c(I)c-2oc2c(I)c(O)c(I)cc12 [Erythrosin b]
- IC50 ([1]; basal; read-out: Basal_Viability ATP DLD-1): > 20 µM
- EC50 ([2]; IC50 / EC50; NCI-H716; read-out: GLP 1 Secretion): 2.93 µM
- IC50 ([3]; basal; read-out: Basal_Viability ATP HCT116): > 20 µM
- IC50 ([4]; IC50 / EC50; endothelial tube area, ADSC/ECFC co-culture; read-out: Anti-Angiogenesis): > 10 µM
- EC50 ([5]; IC50 / EC50, C2C12 beta-catenin translocation, read-out: Wnt Pathway): > 10 µM
- EC50 ([6]; IC50 / EC50; INS-1E; read-out: Insulin Secretion): > 10 µM
- IC50 ([8]; basal; read-out: Basal_Viability ATP SW480): > 20 µM
- IC50 ([9]; GSK3b inhibitor pretreated, read-out: GSK3b inh pretreated_Viability ATP HCT116): > 20 µM
